Data reported in patent publication US10988477B2 (Merck Patent GmbH, priority 2018, dated 2021).

Assays:
[1] = molecular target: intracellular GCN2 (phosphorylation of the GCN2 substrate eIF2α) (Homo sapiens, UniProt Q9P2K8); assay: GCN2 cellular inhibition assay (AlphaScreen SureFire P-eIF2α Ser51, borrelidin-treated U2OS cells); format: cell-based; details: compounds of Formula II; biomarker assay, phosphorylated eIF2α Ser51 in borrelidin-treated U2OS cells
Protocol: Compounds can be screened for their ability to inhibit intracellular GCN2 using an AlphaScreen assay (Perkin Elmer) to detect phosphorylation of the GCN2 substrate eIF2α in borrelidin-treated cells. U2OS cells are plated at 5,000 cells per well in 384-well white polystyrene plates (Corning 3570) in McCoy's 5 A media (GIBCO 26600-023) supplemented with 10% foetal bovine serum (SAFC 12103C), Penicillin/Streptomycin solution diluted 1:100 (Sigma P0781), and 2 mM L-glutamine (Sigma G7513), and allowed to adhere overnight at 37° C. in 5% CO2. Compounds are then added to the cell media from a final concentration of 40 μM in 4-fold serial dilutions. Borrelidin (FluoroChem M01440) is immediately added to the wells to a final concentration of 10 μM and the cells are incubated for 1 h at 37° C. in 5% CO2. After 1 h of treatment with borrelidin, the media is removed, and the cells are lysed with lysis buffer (TGR BioSciences TGRLB) at ambient temperature.
An AlphaScreen SureFire P-eIF2α (Ser51) assay kit (Perkin Elmer TGREIF2S) was used to measure levels of eIF2α phosphorylated on Serine 51. Anti-phosphorylated eIF2α Ser51 antibody-linked acceptor beads (TGR BioScience 6760617) are added to the cell homogenate (diluted 1:250 into a mixture of activation (TGR BioScience TGRAB) and reaction buffer (TGR BioScience TGREIF2S) prepared immediately before use). The plate is then incubated for 2 h at ambient temperature in the dark. Anti-eIF2α antibody-linked donor beads (TGR BioScience 6760617) were then added (diluted 1:100 in dilution buffer (TGR BioScience TGRDB) prepared immediately before use). The plate is then incubated overnight at ambient temperature in the dark.
Plates are analyzed on an Alpha Technology-compatible PHERAstar FS plate reader (BMG Labtech Version 1.14) to quantify phosphorylated eIF2α Ser51 levels. The percentage inhibition of phosphorylated eIF2α is calculated by comparison to control wells stimulated with borrelidin alone.

GCN2 kinase = GCN2 kinase (Homo sapiens, UniProt Q9P2K8); assay: GCN2 enzyme inhibition assay (Transcreener ADP2 fluorescence polarization); format: biochemical; details: compounds of Formula II; 280 μM ATP, 4 nM GCN2 kinase
Procedure, shortened: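 Run at 25 °C in 25 mM Tris-HCl pH 7.5, 50 mM NaCl, 10 mM MgCl2, 1 mM DTT with 4 nM GCN2, 280 μM ATP and 200 μM (RS)7 peptide; compound (0–8 μM final) preincubated 10 min, reaction 1 h. ADP read by antibody/tracer FP; IC50 and Ki(app) from tight-binding fit.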

Sequence of GCN2 kinase (Q9P2K8 whole entry): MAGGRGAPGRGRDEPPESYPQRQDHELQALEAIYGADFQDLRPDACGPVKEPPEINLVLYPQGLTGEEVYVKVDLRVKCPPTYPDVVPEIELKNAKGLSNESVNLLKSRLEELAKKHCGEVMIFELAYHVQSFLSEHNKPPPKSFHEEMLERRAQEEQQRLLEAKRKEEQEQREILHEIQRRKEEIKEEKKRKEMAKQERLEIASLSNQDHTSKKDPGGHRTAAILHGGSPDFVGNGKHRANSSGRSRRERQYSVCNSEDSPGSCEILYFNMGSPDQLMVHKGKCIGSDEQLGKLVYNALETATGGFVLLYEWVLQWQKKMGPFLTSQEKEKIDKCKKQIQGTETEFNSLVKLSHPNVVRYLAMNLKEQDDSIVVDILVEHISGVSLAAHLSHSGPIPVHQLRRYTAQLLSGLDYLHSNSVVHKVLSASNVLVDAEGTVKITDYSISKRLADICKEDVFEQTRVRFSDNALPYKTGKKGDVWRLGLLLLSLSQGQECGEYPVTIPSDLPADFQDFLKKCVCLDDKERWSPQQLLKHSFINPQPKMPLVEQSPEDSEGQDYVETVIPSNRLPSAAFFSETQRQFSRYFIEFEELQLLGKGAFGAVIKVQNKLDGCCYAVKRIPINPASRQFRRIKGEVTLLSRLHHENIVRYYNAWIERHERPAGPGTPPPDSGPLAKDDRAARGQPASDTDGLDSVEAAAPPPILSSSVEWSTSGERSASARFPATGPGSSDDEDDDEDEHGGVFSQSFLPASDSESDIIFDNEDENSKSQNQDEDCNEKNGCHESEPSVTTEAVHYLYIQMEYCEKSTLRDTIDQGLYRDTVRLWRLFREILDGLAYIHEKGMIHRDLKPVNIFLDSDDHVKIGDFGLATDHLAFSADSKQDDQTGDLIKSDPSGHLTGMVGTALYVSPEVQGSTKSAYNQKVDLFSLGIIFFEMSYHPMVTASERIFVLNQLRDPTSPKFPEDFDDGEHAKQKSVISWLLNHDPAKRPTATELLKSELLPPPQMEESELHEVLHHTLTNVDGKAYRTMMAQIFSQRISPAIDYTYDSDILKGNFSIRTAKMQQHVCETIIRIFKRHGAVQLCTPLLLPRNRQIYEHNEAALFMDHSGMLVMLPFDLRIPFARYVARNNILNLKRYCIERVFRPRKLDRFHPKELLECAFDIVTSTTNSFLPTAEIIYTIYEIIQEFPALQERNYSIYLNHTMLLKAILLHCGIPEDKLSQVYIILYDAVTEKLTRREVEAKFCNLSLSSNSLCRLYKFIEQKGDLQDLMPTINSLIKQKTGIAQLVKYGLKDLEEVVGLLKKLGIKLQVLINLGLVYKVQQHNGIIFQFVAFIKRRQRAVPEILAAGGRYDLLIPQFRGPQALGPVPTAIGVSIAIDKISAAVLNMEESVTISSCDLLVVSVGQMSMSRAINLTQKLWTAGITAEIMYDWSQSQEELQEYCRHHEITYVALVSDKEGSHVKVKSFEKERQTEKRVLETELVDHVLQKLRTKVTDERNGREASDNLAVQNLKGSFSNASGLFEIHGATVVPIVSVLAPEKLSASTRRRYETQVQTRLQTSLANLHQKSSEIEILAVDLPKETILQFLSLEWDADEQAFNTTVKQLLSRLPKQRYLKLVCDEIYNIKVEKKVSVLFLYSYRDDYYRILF
Sequence of intracellular GCN2 (phosphorylation of the GCN2 substrate eIF2α) (Q9P2K8 whole entry): as above

SMILES | IC50 [1] [nM] | Ki (GCN2 kinase) [nM]
CC1C(CNS(C)(=O)=O)CCCN1c1cc(-c2cnc3ccc(C(F)F)nn23)ncn1 (single isomer, unassigned) [II-263, N-((1-(6-(6-(Difluoromethyl)imidazo[1,2-b]pyridazin-3-yl)pyrimidin-4-yl)-2-methylpiperidin-3-yl)methyl)methanesulfonamide] | 500 to 5000 | 10 to 1000
CC1C(CNS(C)(=O)=O)CCCN1c1cc(-c2cnc3ccc(C(F)F)nn23)ncn1 (single isomer, unassigned) [II-264, N-((1-(6-(6-(Difluoromethyl)imidazo[1,2-b]pyridazin-3-yl)pyrimidin-4-yl)-2-methylpiperidin-3-yl)methyl)methanesulfonamide] | > 5000 | 10 to 1000
CC1C(CNS(C)(=O)=O)CCCN1c1cc(-c2cnc3ccc(C(F)F)nn23)ncn1 (single isomer, unassigned) [II-265, N-((1-(6-(6-(Difluoromethyl)imidazo[1,2-b]pyridazin-3-yl)pyrimidin-4-yl)-2-methylpiperidin-3-yl)methyl)methanesulfonamide] | > 5000 | 10 to 1000
CC1C(CNS(C)(=O)=O)CCCN1c1cc(-c2cnc3ccc(C(F)F)nn23)ncn1 (single isomer, unassigned) [II-266, N-((1-(6-(6-(Difluoromethyl)imidazo[1,2-b]pyridazin-3-yl)pyrimidin-4-yl)-2-methylpiperidin-3-yl)methyl)methanesulfonamide] | < 500 | < 10
CS(=O)(=O)N1CCCC(c2cc(-c3cnc4ccc(C(F)F)nn34)ncn2)CC1 (single isomer, unassigned) [II-275, 6-(Difluoromethyl)-3-(6-(1-(methylsulfonyl)azepan-4-yl)pyrimidin-4-yl)imidazo[1,2-b]pyridazine] | 500 to 5000 | 10 to 1000
CS(=O)(=O)N1CCCC(c2cc(-c3cnc4ccc(C(F)F)nn34)ncn2)CC1 (single isomer, unassigned) [II-276, 6-(Difluoromethyl)-3-(6-(1-(methylsulfonyl)azepan-4-yl)pyrimidin-4-yl)imidazo[1,2-b]pyridazine] | 500 to 5000 | 10 to 1000
NS(=O)(=O)NCC1CCCN(c2cc(-c3cnc4ccc(C(F)F)nn34)ncn2)C1 (single isomer, unassigned) [II-277] | 500 to 5000 | < 10
NS(=O)(=O)NCC1CCCN(c2cc(-c3cnc4ccc(C(F)F)nn34)ncn2)C1 (single isomer, unassigned) [II-278] | < 500 | < 10
CC1C(CNS(C)(=O)=O)C(F)(F)CCN1c1cc(-c2cnc3ccc(C(F)F)nn23)ncn1 (single isomer, unassigned) [II-302, N-((1-(6-(6-(Difluoromethyl)imidazo[1,2-b]pyridazin-3-yl)pyrimidin-4-yl)-4,4-difluoro-2-methylpiperidin-3-yl)methyl)methanesulfonamide] | 500 to 5000 | 10 to 1000
CC1C(CNS(C)(=O)=O)C(F)(F)CCN1c1cc(-c2cnc3ccc(C(F)F)nn23)ncn1 (single isomer, unassigned) [II-303, N-((1-(6-(6-(Difluoromethyl)imidazo[1,2-b]pyridazin-3-yl)pyrimidin-4-yl)-4,4-difluoro-2-methylpiperidin-3-yl)methyl)methanesulfonamide] | 500 to 5000 | 10 to 1000
CC1CC(F)(F)C(CNS(C)(=O)=O)CN1c1cc(-c2cnc3ccc(C(F)F)nn23)ncn1 (single isomer, unassigned) [II-304, N-((1-(6-(6-(Difluoromethyl)imidazo[1,2-b]pyridazin-3-yl)pyrimidin-4-yl)-4,4-difluoro-6-methylpiperidin-3-yl)methyl)methanesulfonamide] | < 500 | < 10
CC1CC(F)(F)C(CNS(C)(=O)=O)CN1c1cc(-c2cnc3ccc(C(F)F)nn23)ncn1 (single isomer, unassigned) [II-305, N-((1-(6-(6-(Difluoromethyl)imidazo[1,2-b]pyridazin-3-yl)pyrimidin-4-yl)-4,4-difluoro-6-methylpiperidin-3-yl)methyl)methanesulfonamide] | > 5000 | 10 to 1000
CC1C[S+]([O-])CCN1c1cc(-c2cnc3ccc(C(F)F)nn23)ncn1 (single isomer, unassigned) [II-355, 4-(6-(6-(Difluoromethyl)imidazo[1,2-b]pyridazin-3-yl)pyrimidin-4-yl)-3-methylthiomorpholine 1-oxide] | > 5000 | 10 to 1000
CC1C[S+]([O-])CCN1c1cc(-c2cnc3ccc(C(F)F)nn23)ncn1 (single isomer, unassigned) [II-356, 4-(6-(6-(Difluoromethyl)imidazo[1,2-b]pyridazin-3-yl)pyrimidin-4-yl)-3-methylthiomorpholine 1-oxide] | > 5000 | 10 to 1000
CC1C(CNS(C)(=O)=O)CC(F)(F)CN1c1cc(-c2cnc3ccc(C(F)F)nn23)ncn1 (single isomer, unassigned) [II-360, N-((1-(6-(6-(Difluoromethyl)imidazo[1,2-b]pyridazin-3-yl)pyrimidin-4-yl)-5,5-difluoro-2-methylpiperidin-3-yl)methyl)methanesulfonamide] | 500 to 5000 | 10 to 1000
C[C@H]1[C@@H](CNS(C)(=O)=O)CC(F)(F)CN1c1cc(-c2cnc3ccc(C(F)F)nn23)ncn1 (single isomer, unassigned) [II-361] | < 500 | < 10
CC1C(CNS(C)(=O)=O)N(C)CCN1c1cc(-c2cnc3ccc(C(F)F)nn23)ncn1 (single isomer, unassigned) [II-364, N-((4-(6-(6-(difluoromethyl)imidazo[1,2-b]pyridazin-3-yl)pyrimidin-4-yl)-1,3-dimethylpiperazin-2-yl)methyl)methanesulfonamide] | < 500 | < 10
CC1C(CNS(C)(=O)=O)OCCN1c1cc(-c2cnc3ccc(C(F)F)nn23)ncn1 (single isomer, unassigned) [II-372, N-((4-(6-(6-(Difluoromethyl)imidazo[1,2-b]pyridazin-3-yl)pyrimidin-4-yl)-3-methylmorpholin-2-yl)methyl)methanesulfonamide] | > 5000 | > 1000
CC1C(NS(C)(=O)=O)CCCN1c1cc(-c2cnc3ccc(C(F)F)nn23)ncn1 (single isomer, unassigned) [II-374, N-[1-[6-[6-(Difluoromethyl)imidazo[1,2-b]pyridazin-3-yl]pyrimidin-4-yl]-2-methyl-3-piperidyl]methanesulfonamide] | 500 to 5000 | 10 to 1000
CC1C(NS(C)(=O)=O)CCCN1c1cc(-c2cnc3ccc(C(F)F)nn23)ncn1 (single isomer, unassigned) [II-377, N-[1-[6-[6-(Difluoromethyl)imidazo[1,2-b]pyridazin-3-yl]pyrimidin-4-yl]-2-methyl-3-piperidyl]methanesulfonamide] | < 500 | 10 to 1000
CC1(F)CCN(c2cc(-c3cnc4ccc(C(F)F)nn34)ncn2)CC1CNS(C)(=O)=O (single isomer, unassigned) [II-388, N-((1-(6-(6-(Difluoromethyl)imidazo[1,2-b]pyridazin-3-yl)pyrimidin-4-yl)-4-fluoro-4-methylpiperidin-3-yl)methyl)methanesulfonamide] | 500 to 5000 | 10 to 1000
CC1(F)CCN(c2cc(-c3cnc4ccc(C(F)F)nn34)ncn2)CC1CNS(C)(=O)=O (single isomer, unassigned) [II-389, N-((1-(6-(6-(Difluoromethyl)imidazo[1,2-b]pyridazin-3-yl)pyrimidin-4-yl)-4-fluoro-4-methylpiperidin-3-yl)methyl)methanesulfonamide] | 500 to 5000 | 10 to 1000
C[C@H]1[C@@H](CO)CCCN1c1cc(-c2cnc3ccc(C(F)F)nn23)ncn1 (single isomer, unassigned) [II-392] | 500 to 5000 | 10 to 1000
CC1C(CO)CCCN1c1cc(-c2cnc3ccc(C(F)F)nn23)ncn1 (single isomer, unassigned) [II-393, (1-(6-(6-(Difluoromethyl)imidazo[1,2-b]pyridazin-3-yl)pyrimidin-4-yl)-2-methylpiperidin-3-yl)methanol] | > 5000 | 10 to 1000
CS(=O)(=O)N[C@H]1CCCN(c2cc(-c3cnc4ccc(C(F)F)nn34)ncn2)C1 (single isomer, unassigned) [II-404] | 500 to 5000 | 10 to 1000
